# Data reported in US20240083981A1, “TREATMENT OF HERPES SIMPLEX VIRUS INFECTION” (priority 2022, published 2024).
# Tests used:
# HSV-1 RE TKnull = assay: microbe, parasite or virus in culture; details: Human alphaherpesvirus 1, Vero, 24 h
# clinical HSV-1 isolates = assay: Inhibition of clinically derived HSV-1 isolates in Vero cells, cell viability assay; format: cell-based; details: US origin
# Description: Four American isolates (HSV-1 Bethesda and HSV-1 RH; HSV-2 Bethesda and HSV-2 RH), 3 Asian isolates (HSV-2 JA-1, HSV-2 JA-2, and HSV-2 JA-3), and 4 isolates with ACV resistance (poly-mut, C7, C8, and IC) were investigated via a cell viability assay. […] Then, the mixtures were aliquoted into a 96-well plate seeded with Vero cells. After incubation for 48 hours at 37° C., the plate was washed with PBS once, and the viable cells were incubated with 1% Alamar blue for 1 hour.
# HSV-2 333 TKnull = assay: microbe, parasite or virus in culture; details: Human alphaherpesvirus 2, Vero, 24 h
# [1] = Human alphaherpesvirus 1, Vero, HSV-1 RH
compound,measurement,setting,value
"Nc1nc2c(ncn2COCCO)c(=O)[nH]1 [ACV, acyclovir]",IC50,HSV-1 RE TKnull,> 0.1 µM
same,IC90,clinical HSV-1 isolates; HSV-1 Bethesda,> 35.5 µM
same,IC50,"clinical HSV-1 isolates; Human alphaherpesvirus 1, Vero, HSV-1 Bethesda",3.62 µM
same,IC50,clinical HSV-1 isolates; [1],4.73 µM
same,IC90,clinical HSV-1 isolates; [1],> 35.5 µM
same,IC50,HSV-2 333 TKnull,> 0.1 µM
